Measurements: patent US10912741B2, “Prevention of liver cancer with safranal-based formulations” (United Arab Emirates University, priority 2019, dated 2021)

Test system: Malondialdehyde (MDA)
Assay: MDA level in liver homogenate, DEN/2-AAF hepatocarcinogenesis model
Format: in vivo, albino Wistar rats
Conditions: mean±SEM, 8 rats
Procedure: The experimental hepatocarcinogenesis model was developed according to a protocol by […] et al. that was adapted for our purposes. To initiate and promote hepatocarcinogenesis, diethylnitrosamine (DEN) and 2-acetylaminofluorene (2-AAF) were used, respectively. For hepatocarcinogenesis initiation in this model, a single DEN dose (200 mg/kg b.wt.) dissolved in saline was injected intraperitoneally. After initiation, all rats underwent one period of 5-days fasting, as mitotic proliferative stimuli. To promote hepatocarcinogenesis, 2-acetylaminofluorene (2-AAF) was introduced in the form of six daily intragastric doses (30 mg/kg in 1% Tween 80); two weeks after DEN treatment. […] at doses of 25 mg/kg by weight (b.wt.) and 50 mg/kg b.wt, was administrated orally to rats. These doses have been reported to suppress chemically-induced oxidative damage in rats. A total of 40 adult male albino Wistar rats were randomly divided into […] (n=8) and were subjected to different treatments. Group 1 (control) was orally administered distilled water (5 ml/kg b.wt.) throughout the experimental duration and were injected with a single dose of saline. Group 2 ([…] only) was subjected to a safranal dose (50 mg/kg b.wt.) through oral administration for the duration of the experimental period. Hepatocarcinogenesis was induced by DEN and promoted by 2-AAF, as reported previously, in group 3 (HCC). […] Glutathione (GSH) content was determined by analyzing liver homogenates, according to the method of Van Dooran et al. The assay depends on measuring yellow 5-thiol-2-nitrobenzoate absorbance at 412 nm. Glutathione-S-transferase (GST) activity was determined using the method of Habig et al. GST catalyzes the conjugation of GSH thiol group with 1-Chloro-2,4-dinitrobenzene (CDNB), which can be measured by determining the increase in absorbance at 340 nm. […] CAT decomposes hydrogen peroxide (H2O2) to oxygen and water; therefore, the activity of CAT was evaluated according to by the exponential decomposition of H2O2 at 240 nm. […] UV-160-Shimadzu recording spectrophotometer was used to record absorbances. […]

CC1=C(C=O)C(C)(C)CC=C1 [Safranal, 2,6,6-trimethylcyclohexa-1,3-diene-1-carbaldehyde]
MDA (HCC (DEN/2-AAF) rats + safranal high dose 50 mg/kg b.wt. oral, 12 weeks): 0.63 ± 0.03 nmol/mg protein | MDA (HCC (DEN/2-AAF) rats + safranal low dose 25 mg/kg b.wt. oral, 12 weeks): 0.61 ± 0.02 nmol/mg protein | MDA (safranal alone 50 mg/kg b.wt. oral, no DEN (group 2)): 0.64 ± 0.02 nmol/mg protein
